pIC50: −log10 of the molar value. Bridge positions count the residues as written; N and C are the ends. Square brackets hold non-standard residues; d marks the D form. Peptide text beside a SMILES is read from it. Leu(3R-O(AcLeu(3R-OH))) = CC(=O)N[C@H](C(=O)O[C@H](C(C)C)[C@H](N)C(=O)O)[C@H](O)C(C)C; NMeT = CN[C@H](C(=O)O)[C@@H](C)O; dPhLac = O=C(O)[C@H](O)Cc1ccccc1; NMeA = CN[C@@H](C)C(=O)O; NMeDha = C=C(NC)C(=O)O
Experiments:
[1] = biological target: Guanine nucleotide-binding protein G(I)/G(S)/G(T) subunit beta-1/gamma-2 (Homo sapiens, UniProt P59768+P62873); assay: Inhibition of G-protein beta1gamma2 (unknown origin) by flow cytometry; assay type: protein-complex assay
Sequence of Guanine nucleotide-binding protein G(I)/G(S)/G(T) subunit beta-1/gamma-2 (P59768 2-71 limits assumed): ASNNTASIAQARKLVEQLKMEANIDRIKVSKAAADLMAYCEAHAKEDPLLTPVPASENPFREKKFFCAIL
Sequence of Guanine nucleotide-binding protein G(I)/G(S)/G(T) subunit beta-1/gamma-2 (P62873 2-340 limits assumed): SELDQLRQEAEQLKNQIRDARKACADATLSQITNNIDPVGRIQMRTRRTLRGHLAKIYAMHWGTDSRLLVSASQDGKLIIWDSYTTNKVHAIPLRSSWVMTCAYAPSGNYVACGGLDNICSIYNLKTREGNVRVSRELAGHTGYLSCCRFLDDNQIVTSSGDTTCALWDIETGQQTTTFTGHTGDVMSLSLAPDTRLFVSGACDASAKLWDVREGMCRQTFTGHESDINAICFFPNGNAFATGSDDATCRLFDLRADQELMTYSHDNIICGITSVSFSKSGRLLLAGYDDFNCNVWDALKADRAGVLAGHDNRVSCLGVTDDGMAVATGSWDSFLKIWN

[2] = biological target: T1, GNAQ/GNA11 (Homo sapiens, UniProt P50148+P29992); assay: Inhibition of G-alphaq/11 in human platelet rich plasma assessed as inhibition of ADP-mediated platelet aggregation
T1 sequence (P50148 whole entry): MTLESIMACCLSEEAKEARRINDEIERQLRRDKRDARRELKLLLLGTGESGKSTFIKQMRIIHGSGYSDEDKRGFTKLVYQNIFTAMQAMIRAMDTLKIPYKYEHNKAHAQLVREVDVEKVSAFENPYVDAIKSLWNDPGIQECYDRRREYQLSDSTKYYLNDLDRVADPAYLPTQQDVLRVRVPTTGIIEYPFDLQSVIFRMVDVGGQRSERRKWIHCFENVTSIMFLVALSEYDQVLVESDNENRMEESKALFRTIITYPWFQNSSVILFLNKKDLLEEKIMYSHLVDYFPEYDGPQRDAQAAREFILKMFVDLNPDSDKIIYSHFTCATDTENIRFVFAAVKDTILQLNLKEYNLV
T1 sequence (P29992 whole entry): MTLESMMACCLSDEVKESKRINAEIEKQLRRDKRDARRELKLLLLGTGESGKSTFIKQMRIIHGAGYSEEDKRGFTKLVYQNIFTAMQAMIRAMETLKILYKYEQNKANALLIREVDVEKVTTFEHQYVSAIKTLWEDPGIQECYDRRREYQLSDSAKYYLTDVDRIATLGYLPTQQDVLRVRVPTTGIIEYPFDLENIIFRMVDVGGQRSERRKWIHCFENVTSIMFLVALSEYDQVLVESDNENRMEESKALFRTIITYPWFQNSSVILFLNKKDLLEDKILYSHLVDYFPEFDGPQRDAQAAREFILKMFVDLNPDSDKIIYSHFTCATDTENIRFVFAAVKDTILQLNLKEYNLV

[3] = biological target: T1, GNAQ/GNA11; assay: Inhibition of G-alphaq/11 in human platelet rich plasma assessed as inhibition of ADP-mediated calcium ion mobilization
[4] = Inhibition of recombinant G-alpha subunit (unknown origin) assessed as inhibition of GDP release; parameters: species or system Homo sapiens

pIC50 [1] | SMILES | further results
< 3.52 | O=C(O)C1CCCCC1c1c2ccc(=O)cc-2oc2cc(O)ccc12 (configuration not stated) | –
6.60 | O=C(O)C1CC23C(Cl)C(Cl)=C(Cl)C(Cl)C2(CC1c1c2ccc(=O)c(O)c-2oc2c(O)c(O)ccc12)C3(Cl)Cl (configuration not stated) | –
6.70 | O=C1OC2(c3ccccc31)c1ccc(O)c(O)c1Oc1c2ccc(O)c1O | –
6.70 | O=C(O)C1CCCCC1c1c2ccc(=O)c(O)c-2oc2c(O)c(O)ccc12 (configuration not stated) | –
– | C=C1C(=O)N[C@@H](C)C(=O)N(C)[C@@H](C)C(=O)N[C@@H]([C@H](OC(=O)[C@@H](NC(C)=O)[C@H](O)C(C)C)C(C)C)C(=O)N(C)[C@@H]([C@@H](C)OC)C(=O)O[C@H](C)[C@H](NC(C)=O)C(=O)O[C@H](Cc2ccccc2)C(=O)N1C (Ac-T[dPhLac][NMeDha]A[NMeA][Leu(3R-O(AcLeu(3R-OH)))][NMeT](Me); ester 1-C) | pIC50 [2]: 6.00 to 7.00; pIC50 [3]: 6.00 to 7.00
– | Cc1ccc(C(=O)Nc2ccc(S(=O)(=O)O)c3cc(S(=O)(=O)O)cc(S(=O)(=O)O)c23)cc1NC(=O)c1cccc(NC(=O)Nc2cccc(C(=O)Nc3cc(C(=O)Nc4ccc(S(=O)(=O)O)c5cc(S(=O)(=O)O)cc(S(=O)(=O)O)c45)ccc3C)c2)c1 [SURAMIN] | pIC50 [4]: 6.62

From ChEMBL document CHEMBL4354836, “Heterotrimeric G Proteins as Therapeutic Targets in Drug Discovery” (J Med Chem, 2020)
